# Species on record: Rattus norvegicus
# Experiment: Open TG-GATES - Regimen: Single
# Assay type: toxicity, organism-based, Sprague-Dawley
# Parameters: regimen Single, gender Male, age 6 weeks
# Conditions: in vivo, po, route gavage; for APTT / Bas / Eos / Fbg / Hb / Ht / Lym / MCH / MCHC / MCV / Mono / Neu / PT / Plat / Ret / WBC: tissue Blood; for KIDNEY_L / KIDNEY_R / KIDNEY_TOTAL: tissue Kidney; for LIVER: tissue Liver; for ALP / ALT / AST / BUN / CRE / Ca / DBIL / GLC / IP / K / LDH / Na / PL / RALB / TBIL / TC / TG / TP / gamma-GTP: tissue Plasma
# [1] = 30 mg/kg, 3 h, dose level Middle
# [2] = 30 mg/kg, 6 h, dose level Middle
# [3] = 30 mg/kg, 9 h, dose level Middle
# [4] = 30 mg/kg, 24 h, dose level Middle
# [5] = 100 mg/kg, 3 h, dose level High
# [6] = 100 mg/kg, 6 h, dose level High
# [7] = 100 mg/kg, 9 h, dose level High
# [8] = 100 mg/kg, 24 h, dose level High
structure (smiles),measurement,setting,value
CN(C)CCCN1c2ccccc2CCc2ccc(Cl)cc21 [CLOMIPRAMINE],APTT,[1],16.4 s
same,Bas,[1],0.2%
same,Eos,[1],0.6%
same,Fbg,[1],254 mg/dL
same,Hb,[1],14.2 g/dL
same,Ht,[1],43.6%
same,Lym,[1],71.2%
same,MCH,[1],21 pg
same,MCHC,[1],32.6%
same,MCV,[1],64.5 fL
same,Mono,[1],2.8%
same,Neu,[1],24%
same,PT,[1],13.6 s
same,Plat,[1],115.5 x10_4/uL
same,Ret,[1],7.9%
same,WBC,[1],95.4 x10_2/uL
same,KIDNEY_L,[1],1 g
same,KIDNEY_R,[1],1 g
same,KIDNEY_TOTAL,[1],1.9 g
same,LIVER,[1],9.7 g
same,ALP,[1],1675.2 IU/L
same,ALT,[1],38.4 IU/L
same,AST,[1],77.8 IU/L
same,BUN,[1],9.8 mg/dL
same,CRE,[1],0.2 mg/dL
same,Ca,[1],10.8 mg/dL
same,DBIL,[1],0.016 mg/dL
same,GLC,[1],187.8 mg/dL
same,IP,[1],9.6 mg/dL
same,K,[1],4 meq/L
same,LDH,[1],96 IU/L
same,Na,[1],141 meq/L
same,PL,[1],145.4 mg/dL
same,RALB,[1],2.5 g/dL
same,TBIL,[1],0.062 mg/dL
same,TC,[1],75.2 mg/dL
same,TG,[1],78.8 mg/dL
same,TP,[1],5.2 g/dL
same,gamma-GTP,[1],1 IU/L
same,TERMINAL_BW,[2],214.2 g
same,APTT,[2],15.9 s
same,Bas,[2],0.2%
same,Eos,[2],0.8%
same,Fbg,[2],241.2 mg/dL
same,Hb,[2],14.1 g/dL
same,Ht,[2],43.9%
same,Lym,[2],78.2%
same,MCH,[2],20.2 pg
same,MCHC,[2],32.2%
same,MCV,[2],62.8 fL
same,Mono,[2],2.6%
same,Neu,[2],17.2%
same,PT,[2],13.7 s
same,Plat,[2],114.1 x10_4/uL
same,Ret,[2],7.6%
same,WBC,[2],82.3 x10_2/uL
same,KIDNEY_L,[2],1 g
same,KIDNEY_R,[2],1 g
same,KIDNEY_TOTAL,[2],2 g
same,LIVER,[2],9.2 g
same,ALP,[2],1672.6 IU/L
same,ALT,[2],39.2 IU/L
same,AST,[2],73.8 IU/L
same,BUN,[2],7.2 mg/dL
same,CRE,[2],0.2 mg/dL
same,DBIL,[2],0.02 mg/dL
same,GLC,[2],186.4 mg/dL
same,IP,[2],9.9 mg/dL
same,K,[2],4.2 meq/L
same,LDH,[2],75.4 IU/L
same,Na,[2],141.4 meq/L
same,PL,[2],134.6 mg/dL
same,RALB,[2],2.5 g/dL
same,TBIL,[2],0.068 mg/dL
same,TC,[2],74.4 mg/dL
same,TG,[2],55.8 mg/dL
same,TP,[2],5.3 g/dL
same,gamma-GTP,[2],1.2 IU/L
same,TERMINAL_BW,[3],211.3 g
same,APTT,[3],17.1 s
same,Bas,[3],0%
same,Eos,[3],1.2%
same,Fbg,[3],273.6 mg/dL
same,Hb,[3],13.9 g/dL
same,Ht,[3],42.6%
same,Lym,[3],77.8%
same,MCH,[3],20.4 pg
same,MCHC,[3],32.6%
same,MCV,[3],62.6 fL
same,Mono,[3],2.2%
same,Neu,[3],17.8%
same,PT,[3],13.8 s
same,Plat,[3],124.6 x10_4/uL
same,Ret,[3],7.7%
same,WBC,[3],83.2 x10_2/uL
same,KIDNEY_L,[3],1 g
same,KIDNEY_R,[3],0.9 g
same,KIDNEY_TOTAL,[3],1.9 g
same,LIVER,[3],8.5 g
same,ALP,[3],1468.8 IU/L
same,ALT,[3],36.2 IU/L
same,AST,[3],71.8 IU/L
same,BUN,[3],7.4 mg/dL
same,CRE,[3],0.2 mg/dL
same,Ca,[3],10.5 mg/dL
same,DBIL,[3],0.024 mg/dL
same,GLC,[3],174 mg/dL
same,IP,[3],10.5 mg/dL
same,K,[3],4.1 meq/L
same,LDH,[3],86.4 IU/L
same,Na,[3],140.6 meq/L
same,PL,[3],143 mg/dL
same,RALB,[3],2.6 g/dL
same,TBIL,[3],0.076 mg/dL
same,TC,[3],83.4 mg/dL
same,TG,[3],34.2 mg/dL
same,TP,[3],5.4 g/dL
same,gamma-GTP,[3],1 IU/L
same,TERMINAL_BW,[4],231.8 g
same,APTT,[4],16.9 s
same,Bas,[4],0%
same,Eos,[4],0.6%
same,Fbg,[4],247.6 mg/dL
same,Ht,[4],41.2%
same,Lym,[4],81.6%
same,MCH,[4],20.6 pg
same,MCHC,[4],32.3%
same,MCV,[4],63.9 fL
same,Mono,[4],2.6%
same,Neu,[4],14%
same,PT,[4],13.8 s
same,Plat,[4],116.6 x10_4/uL
same,Ret,[4],7.1%
same,WBC,[4],83.8 x10_2/uL
same,KIDNEY_L,[4],1 g
same,KIDNEY_R,[4],1 g
same,KIDNEY_TOTAL,[4],2.1 g
same,LIVER,[4],10.5 g
same,ALP,[4],2253 IU/L
same,ALT,[4],44.2 IU/L
same,AST,[4],76.8 IU/L
same,BUN,[4],13.2 mg/dL
same,CRE,[4],0.2 mg/dL
same,Ca,[4],10.9 mg/dL
same,DBIL,[4],0.028 mg/dL
same,GLC,[4],179 mg/dL
same,IP,[4],8 mg/dL
same,K,[4],4.1 meq/L
same,LDH,[4],93.8 IU/L
same,Na,[4],141.4 meq/L
same,PL,[4],159 mg/dL
same,RALB,[4],2.6 g/dL
same,TBIL,[4],0.062 mg/dL
same,TC,[4],80.2 mg/dL
same,TG,[4],115.2 mg/dL
same,TP,[4],5.5 g/dL
same,gamma-GTP,[4],1.2 IU/L
same,TERMINAL_BW,[5],215.5 g
same,APTT,[5],16.9 s
same,Bas,[5],0%
same,Eos,[5],0.8%
same,Fbg,[5],257.8 mg/dL
same,Hb,[5],14.1 g/dL
same,Ht,[5],43.3%
same,Lym,[5],77.8%
same,MCH,[5],21.2 pg
same,MCHC,[5],32.6%
same,MCV,[5],64.9 fL
same,Mono,[5],3.4%
same,Neu,[5],17.2%
same,PT,[5],13.5 s
same,Plat,[5],125.6 x10_4/uL
same,Ret,[5],8%
same,WBC,[5],69.8 x10_2/uL
same,KIDNEY_L,[5],1 g
same,KIDNEY_R,[5],0.9 g
same,KIDNEY_TOTAL,[5],1.9 g
same,LIVER,[5],10.1 g
same,ALP,[5],1835 IU/L
same,ALT,[5],42.8 IU/L
same,AST,[5],76.6 IU/L
same,BUN,[5],7.4 mg/dL
same,CRE,[5],0.1 mg/dL
same,Ca,[5],10.5 mg/dL
same,DBIL,[5],0.036 mg/dL
same,GLC,[5],188.8 mg/dL
same,IP,[5],9.6 mg/dL
same,K,[5],3.9 meq/L
same,LDH,[5],116.6 IU/L
same,Na,[5],142.2 meq/L
same,PL,[5],147 mg/dL
same,RALB,[5],2.5 g/dL
same,TBIL,[5],0.068 mg/dL
same,TC,[5],73.8 mg/dL
same,TG,[5],85.4 mg/dL
same,TP,[5],5.3 g/dL
same,gamma-GTP,[5],1 IU/L
same,TERMINAL_BW,[6],210.3 g
same,APTT,[6],17.8 s
same,Bas,[6],0%
same,Eos,[6],1%
same,Fbg,[6],276 mg/dL
same,Hb,[6],14.2 g/dL
same,Ht,[6],44%
same,Lym,[6],75.6%
same,MCH,[6],21.3 pg
same,MCHC,[6],32.2%
same,MCV,[6],66.2 fL
same,Mono,[6],2.8%
same,Neu,[6],20%
same,PT,[6],13.9 s
same,Plat,[6],125.1 x10_4/uL
same,Ret,[6],8.2%
same,WBC,[6],69.9 x10_2/uL
same,KIDNEY_L,[6],1 g
same,KIDNEY_R,[6],1 g
same,KIDNEY_TOTAL,[6],2 g
same,LIVER,[6],9.2 g
same,ALP,[6],1949.8 IU/L
same,ALT,[6],40.6 IU/L
same,AST,[6],76.2 IU/L
same,BUN,[6],6.8 mg/dL
same,CRE,[6],0.1 mg/dL
same,Ca,[6],10.4 mg/dL
same,DBIL,[6],0.042 mg/dL
same,GLC,[6],187.4 mg/dL
same,IP,[6],9.7 mg/dL
same,K,[6],4.1 meq/L
same,LDH,[6],103.8 IU/L
same,Na,[6],142.8 meq/L
same,PL,[6],134.6 mg/dL
same,RALB,[6],2.5 g/dL
same,TBIL,[6],0.064 mg/dL
same,TC,[6],71.4 mg/dL
same,TG,[6],53 mg/dL
same,TP,[6],5.2 g/dL
same,gamma-GTP,[6],1 IU/L
same,TERMINAL_BW,[7],208.4 g
same,APTT,[7],16.6 s
same,Bas,[7],0%
same,Eos,[7],1%
same,Fbg,[7],270.4 mg/dL
same,Hb,[7],14.1 g/dL
same,Ht,[7],43.6%
same,Lym,[7],71.2%
same,MCH,[7],21 pg
same,MCHC,[7],32.3%
same,MCV,[7],65.1 fL
same,Mono,[7],2%
same,Neu,[7],25.2%
same,PT,[7],13.9 s
same,Plat,[7],144.8 x10_4/uL
same,Ret,[7],8.1%
same,WBC,[7],72.8 x10_2/uL
same,KIDNEY_L,[7],1 g
same,KIDNEY_R,[7],1 g
same,KIDNEY_TOTAL,[7],2 g
same,LIVER,[7],9 g
same,ALP,[7],1702 IU/L
same,ALT,[7],32.4 IU/L
same,AST,[7],71.2 IU/L
same,BUN,[7],6.4 mg/dL
same,CRE,[7],0.1 mg/dL
same,Ca,[7],10.2 mg/dL
same,DBIL,[7],0.04 mg/dL
same,GLC,[7],194.6 mg/dL
same,IP,[7],9.8 mg/dL
same,K,[7],3.7 meq/L
same,LDH,[7],91 IU/L
same,Na,[7],142.6 meq/L
same,PL,[7],137.4 mg/dL
same,RALB,[7],2.5 g/dL
same,TBIL,[7],0.064 mg/dL
same,TC,[7],72.8 mg/dL
same,TG,[7],39 mg/dL
same,TP,[7],5.2 g/dL
same,gamma-GTP,[7],1 IU/L
same,TERMINAL_BW,[8],217.7 g
same,APTT,[8],19.3 s
same,Bas,[8],0.2%
same,Eos,[8],1%
same,Fbg,[8],278.8 mg/dL
same,Hb,[8],14.1 g/dL
same,Ht,[8],43.4%
same,Lym,[8],78.2%
same,MCH,[8],20.6 pg
same,MCHC,[8],32.5%
same,MCV,[8],63.5 fL
same,Mono,[8],2.6%
same,Neu,[8],17.4%
same,PT,[8],13.5 s
same,Plat,[8],144.2 x10_4/uL
same,Ret,[8],7.4%
same,WBC,[8],91.7 x10_2/uL
same,KIDNEY_L,[8],1 g
same,KIDNEY_R,[8],1 g
same,KIDNEY_TOTAL,[8],2 g
same,LIVER,[8],9.6 g
same,ALP,[8],1855 IU/L
same,ALT,[8],43 IU/L
same,AST,[8],69.8 IU/L
same,BUN,[8],15.4 mg/dL
same,CRE,[8],0.2 mg/dL
same,Ca,[8],10.8 mg/dL
same,DBIL,[8],0.046 mg/dL
same,GLC,[8],180.6 mg/dL
same,IP,[8],8.3 mg/dL
same,K,[8],4 meq/L
same,LDH,[8],92 IU/L
same,Na,[8],141.8 meq/L
same,PL,[8],168.4 mg/dL
same,RALB,[8],2.7 g/dL
same,TBIL,[8],0.056 mg/dL
same,TC,[8],98.2 mg/dL
same,TG,[8],96.2 mg/dL
same,TP,[8],5.7 g/dL
same,gamma-GTP,[8],1 IU/L

# Reference: ChEMBL document CHEMBL3885861, “Open TG-GATES”
